Measured values published in patent US6902881B2, “Compounds and methods for regulating cell differentiation” (priority 2000, dated 2005).

What was measured:
[1] = test system: UV-irradiated Xenopus laevis stage 1 embryos; assay: Rescue of dorsal axis formation in UV-irradiated embryos, scored by dorsal anterior index (DAI); assay type: in vivo
Description: (§1) Several hundred spawned eggs were fertilized in vitro and incubated at 16 to 18° C. […] The vegetal surfaces of some of these embryos were irradiated with one or the other sources of UV light within 10 min of fertilization for 20-30 min. […] The embryos were not disturbed, touched or tipped from the moment of fertilization, during UV irradiation or for the duration of development. […] A score of 5 defines a normal dorsal axis, 4 a microcephalic, 3 a cyclopic, 2 an anoptic, 1 an acephalic and 0 an adorsal embryo.
The biological activities of biliverdin and its derivatives were tested by adding each of them to the incubation solution of embryos after the termination of the UV light exposure to either 254 or 366 nm UV light and at selected time periods between T ƒfm=0.4-2.5. Final concentrations of biliverdin ranged from 0.05 to 5 μM in less than 1% ethanol. […] An extinction coefficient of 51,000 was utilized to calculate their concentrations. All petri dishes were covered with aluminum foil to avoid light exposure. The extent of dorsal axis formation was analyzed by the morphological criteria described above.
(§2) Stage 1 embryos were exposed to UV-light source emitting at 366 nm (Mineralight UVSL-58, Ultraviolet Products, Inc., San Gabriel, Calif.) as described and then incubated in the presence of pure candidate DCD or commercially available biliverdin (Sigma-Aldrich, St. Louis, Mo.) at final concentrations from 0.05 to 1.2 μM in less than 1% ethanol. The concentrations were calculated using a molar extinction coefficient of 51,000. One group of embryos was not exposed to UV light but was incubated in the presence of 0.5 μM of candidate DCD.

[2] = test system: HT29 colon cancer cells; assay: Cellular proliferation and viability of HT29 colon cancer cells; assay type: cell-based, human
Description: Cell Culture Conditions. Human HT 29 colon cancer cells were purchased from the American Type Culture Collection. Cells were maintained in Dulbecco's Modified Eagle's Medium (DME) supplemented with 5% heat-inactivated fetal bovine serum, 2 mM glutamine, and antibiotics (DME/5%). All cell lines were incubated in a humidified 5% CO2/air environment. They were maintained at 37° C. in 5% CO2 covered in aluminum foil to prevent exposure to the light. A total of 1×10^6 cells were incubated per flask and allowed to attach overnight. Media was changed every third day. Cell counts were performed on a Coulter Counter following detachment of cells by standard trypsinization procedures. […] The period of exposure was followed by incubation in the absence of biliverdine. Cell numbers were monitored until proliferation resumed. The production of CEA and alkaline phosphatase was measured as described below.
The HT29 colon cancer cells were incubated with different concentrations of biliverdine and their response studied to identify the concentration ranges required to elicit a biological and/or a toxicological response (Table III).

[3] = test system: p 21 content in HT 29 Colon Cancer Cells; assay: p21 content in HT 29 colon cancer cells; assay type: cell-based, human; conditions: HT 29 low-density culture
Description: Biliverdin IXα exerts powerful effects on human colon cancer HT 29 cells. Normally, the contents of p21 and p27, known inhibitors of the CDK system, increase as control HT 29 cells become confluent and reach stationary phase. […] In contrast, addition of 4×10^−7 M biliverdin to the incubation medium of the low-density cultures, results in persistence and/or progressive increase in p21 and p27 content starting as early as 16 hs. This effect on p21 induction is dependent on one or both of the propionic acid side chains of biliverdin.

[4] = test system: control fertilized oocytes unexposed to UV light; assay: Development of control embryos unexposed to UV light incubated with the compounds (dysmorphogen test); conditions: control fertilized oocytes unexposed to UV light incubated with the compound
Description: as §1
The biological activities of biliverdin and its derivatives were tested by adding each of them to the incubation solution of embryos after the termination of the UV light exposure to either 254 or 366 nm UV light and at selected time periods between T ƒfm=0.4-2.5. Final concentrations of biliverdin ranged from 0.05 to 5 μM in less than 1% ethanol. […] The extent of dorsal axis formation was analyzed by the morphological criteria described above.
as §2, with “One group of embryos was not exposed to UV light but was incubated in the presence of 0.5 μM of candidate DCD.” left out

[5] = test system: Normal Fibroblast (3T3-L1 fibroblasts); assay: Cellular triacyl glycerol (TAG) content, normal fibroblast; assay type: cell-based
Description: Expression of differentiation markers. Carcinoembryogenic antigen in cell supernatants collected each three days was assayed by standard ELISA determinations using an IMX assay for quantitative measurement of the antigen. Cellular triacyl glycerol content was measured spectrophotometrically by enzymatic hydrolysis and analysis of the amount of glycerol released using a standard assay, Triglyceride (INT) 10 (Sigma Diagnostics). […] The fluorescence is detected at 450 nm with an excitation of 365 nm, using a Jobin Ivon-Spex Fluoro Max-2 fluorimeter. The alkaline phosphatase activity detected was expressed in units of μmol/mg protein/min. These compounds also affect the timing for the fat accumulation. After 9 days of incubation with insulin and bovine pituitary extract, but without biliverdin, the fat droplets in the cells are small and scattered diffusely throughout the cell. These globules continue to enlarge to fill most of the cytoplasmic space by day 14. In contrast, by day 7 the cells incubated in the presence of biliverdin already contain large, grouped and prominent droplets. While the triacyl glycerol content increases in both HT 29 and liposarcoma cells, the fat droplets in HT 29 cells are smaller than those that fill the cytoplasm of the liposarcoma cells. 3T3-L1 fibroblasts differentiate into adipocytes in the presence of insulin (Table VII). In the absence of biliverdin, this hormone increases the triacylglycerol content of 3T3-L1 fibroblasts by 3-fold relative to control. When biliverdin is added, a progressively greater content of triacyl glycerol is achieved at day 9. The increase is dependent on the biliverdin concentration. At the highest concentration used, 4×10^−7 M, there is a 5.8-fold increase of triacyl glycerol content over that of the undifferentiated fibroblasts (Table VII). This almost doubles the amount in the cells incubated with differentiation medium alone and is nearly as high as observed with troglitazone. At a lower biliverdin concentration, 10^−8 M, there is a 3.5-fold increase compared to control values. Remarkably, the amounts of biliverdin required to achieve the effects on proliferation, cell cycle and differentiation marker up-regulation, i.e. 10^−7-10^−06 M, are the same as those needed to re-establish the capacity of embryos depleted of the tetrapyrrole by treatment with UV-light to form a dorsal axis.

[6] = test system: Liposarcoma cells; assay: Cellular triacyl glycerol (TAG) content, liposarcoma; assay type: cell-based, human; conditions: insulin 5 μg/ml, pituitary extract 20 μg/ml, biliverdin 4 × 10^−7 M where present
Description: Expression of differentiation markers. Carcinoembryogenic antigen in cell supernatants collected each three days was assayed by standard ELISA determinations using an IMX assay for quantitative measurement of the antigen. Cellular triacyl glycerol content was measured spectrophotometrically by enzymatic hydrolysis and analysis of the amount of glycerol released using a standard assay, Triglyceride (INT) 10 (Sigma Diagnostics). Cellular alkaline phosphatase activity was determined by measuring the fluorescence change induced by the hydrolysis of 4-methylumbelliferylphosphate. The fluorescence is detected at 450 nm with an excitation of 365 nm, using a Jobin Ivon-Spex Fluoro Max-2 fluorimeter. The alkaline phosphatase activity detected was expressed in units of μmol/mg protein/min.
Liposarcoma cells also accumulate triacyl glycerol in response to biliverdin. The extent of the accumulation is determined by the composition of the incubation media. Triacyl glycerol is induced in liposarcoma cells by insulin alone. The amount increases when bovine pituitary extract is added with the insulin. The highest production is achieved, however, when biliverdin is combined with insulin plus bovine pituitary extract.

## C=CC1=C(C)/C(=C/C2=NC(=C\c3[nH]c(/C=C4\NC(=O)C(C)=C4C=C)c(C)c3CCC(=O)OC)/C(CCC(=O)OC)=C2C)NC1=O.Cl [biliverdin dimethyl ester hydrochloride, reference compound]
[1]; 254 or 366 nm UV-irradiated embryos, μM amounts
  recovery of dorsal axial structures: does not induce recovery
[1]; UV-irradiated embryos, 3.7 μM
  recovery of dorsal axis formation: no recovery
[2]
  activity on human colon adenocarcinoma cells (p21/p27, G1, proliferation arrest, differentiation markers): inactive
[3]
  p21 content in words: nearly undetectable
[4]
  average DAI of control embryos: 5

## Insulin: hormone; differentiates 3T3-L1 fibroblasts into adipocytes
[5]; 3T3-L1 fibroblasts, insulin in the absence of biliverdin
  increase of triacylglycerol content relative to control: 3 fold
[5]; Normal Fibroblast, insulin 5 μg/ml, biliverdin 4 × 10^−7 M where present
  % Change of TAG: 304%
[5]; Normal Fibroblast, insulin 5 μg/ml, biliverdin 4 × 10^−7 M where present, control 9.3
  TAG: 28.3 mg/10^6 cells
[6]
  % Change of TAG: 139%
[6]; control 12.3
  TAG: 17.1 mg/10^6 cells
